How the values were obtained:
Der f 1 = molecular target: T1, Der f 1 (Dermatophagoides farinae, UniProt P16311); experiment: ELISA efficacy determination protocol, allergen neutralization versus Der f 1; type: biochemical; settings: for % of Allergen Neutralized: Versus Der f 1, 0.26 wt.% active ion in composition before sample preparation, pH 3.5, normalized to water control
T1 construct: Add 1.0 ml of 20 ug/ml Dermatophagoides farinae mite extract; from tissue; host or cells: Dermatophagoides farinae mite extract (crude)
T1 sequence (P16311 99-321): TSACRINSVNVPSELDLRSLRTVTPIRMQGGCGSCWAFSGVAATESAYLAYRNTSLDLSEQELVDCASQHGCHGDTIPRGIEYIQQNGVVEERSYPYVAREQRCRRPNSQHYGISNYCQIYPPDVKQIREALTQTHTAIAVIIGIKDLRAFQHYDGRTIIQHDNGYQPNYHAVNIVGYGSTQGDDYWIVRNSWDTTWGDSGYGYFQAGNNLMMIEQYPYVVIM
From the text: (§1) The efficacy of an allergen neutralization composition can be determined by the ELISA protocol. Enzyme-linked immunosorbent assay (“ELISA”) is a highly sensitive assay technique for detection and measurement of antigens or antibodies in solution. The assay uses enzyme-linked antigens or antibodies to amplify an antigen-antibody reaction. A single enzyme-linked antibody-antigen complex can convert orders of magnitude more of colorless substrate molecules into detectable colored products, thus considerably amplifying the original antigen-antibody reaction. The antigen or antibody is adsorbed onto the surface of the well of a microtiter plate, and all the relevant reactions take place in solution inside the well. While the following protocol will be easily understood by those skilled in the art, for a more detailed explanation please see Konishi, E. and Uehara, K. Enzyme-linked immunosorbent assay for quantifying antigens of Dermatophagoides farinae and D. pteronyssinus (Acari: Pyroglyphidae) in house dust samples, 1990, Entomologist Society of America, 27 (6), p. 993-998.
(§2) It is understood that those skilled in the art of allergen suppression will be aware of numerous variations to the protocol given below. For example, the monoclonal antibody may be substituted with a similar antibody, for example Der f 1 for Der f 2. But a standard, in this case water, is used and the results for the samples that contain active ingredients are normalized against the standard and the results reported as percentage of allergen remaining. That is, the amount of allergen that is not neutralized. Thus, the allergen neutralization results for similar, but not identical antibodies should be substantially the same when normalized to the standard. Both Der f 1 and Der f 2 were tested for various compositions. Der f 1 was chosen as the standard for the present Efficacy Determination Protocol.
(§3) At least two samples are prepared. One sample contains only distilled water and samples of one or more allergen neutralization compositions containing the allergen neutralization active, for example Al2(SO4)3, tannin, etc. The samples are all treated according to the same protocol, and the distilled water sample is used as the control. All samples are prepared as follows:
(§4) 1) Add 1.0 ml of 20 ug/ml Dermatophagoides farinae mite extract to 0.8 ml of the sample composition (either the allergen neutralization composition or water for the control). Mix well and let sit for 1 hour at room temp.
(§5) 2) Add 2.2 ml of 20% skim milk in Phosphate Buffer Saline (PBS).
(§6) 3) Mix well by vortexing and centrifuge at 12000 rpm (approx. 17000×g) for 1 hour.
(§7) 4) The supernatant is used for the ELISA protocol.
(§8) Each well of a microplate is coated at 4° C. overnight with 100 μl of Der f 2 monoclonal antibody (clone 15E11, from Asahi Breweries., AB-A-4) at a protein concentration of 2 μg per ml of Phosphate Buffer Saline (PBS), pH 7.4 containing 0.1% sodium azide. The monoclonal antibody is discarded and the plate is incubated with 100 μl of 1% BSA PBS containing 0.1% sodium azide for 1 hour. The plate is washed 3 times with PBS containing 0.05% Tween 20 (PBS-T). 100 μl of an allergen sample is added and incubated for 1 hour at 37° C.
(§9) Use 3×dilutions of a reference Dermatophagoides farinae crude extract (commercially available from LSL) to make the standard curve. The curve is made using 6.9 nanogram-mite extract equivalent/ml to 5 microgram-mite extract equivalent/ml. Wash plate with PBS-T for 3 times. 100 μl of Horse Radish Peroxidase (HRP) conjugated anti Der f 2 antibody (clone 13A4) is added at 40 ng/ml and the plate is incubated at 37° C. for 1 hour. The plate is then washed with PBS-T 3 times and then washed with water 3 times. The wells are incubated with 100 μl of o-phenylene diamine at 2.0 mg/ml of 0.1M phosphate buffer (pH 6.2) containing 0.03% H2O2. The enzyme reaction is terminated by adding 50 μl of 2 M H2SO4.
(§10) The absorbance of the sample is read at 490 nm with a cell length of 1 cm. […]

Der f 2 = molecular target: T2, Der f 2 (Dermatophagoides farinae, UniProt Q00855); experiment: ELISA efficacy determination protocol, allergen neutralization versus Der f 2; type: biochemical; settings: 0.26 wt.% active ion in composition before sample preparation, pH 3.5, normalized to water control
T2 construct: Add 1.0 ml of 20 ug/ml Dermatophagoides farinae mite extract; from tissue; host or cells: Dermatophagoides farinae mite extract (crude)
From the text: as §1, §2, §3, §4, §5, §6, §7, §8, §9, §10

T2 sequence (Q00855 18-146): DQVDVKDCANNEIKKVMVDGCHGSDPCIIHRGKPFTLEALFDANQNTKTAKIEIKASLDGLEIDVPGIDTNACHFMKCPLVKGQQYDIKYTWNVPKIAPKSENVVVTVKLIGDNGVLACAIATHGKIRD

O=S(=O)([O-])[O-].O=S(=O)([O-])[O-].O=S(=O)([O-])[O-].[Al+3].[Al+3] [Al2(SO4)3]
% of Allergen Neutralized (Der f 1): 66%
% of Allergen Neutralized (Der f 2): 6%

CC(O)C(=O)[O][Al]([O]C(=O)C(C)O)[O]C(=O)C(C)O (stereo not shown) [Al Lactate, reference compound]
% of Allergen Neutralized (Der f 1): 30%
% of Allergen Neutralized (Der f 2): 17%

O=[N+]([O-])[O-].O=[N+]([O-])[O-].O=[N+]([O-])[O-].[Al+3] [Al(NO3)3]
% of Allergen Neutralized (Der f 1): 93%
% of Allergen Neutralized (Der f 2): 50%

[Cl][Al]([Cl])[Cl] [AlCl3]
% of Allergen Neutralized (Der f 1): 85%
% of Allergen Neutralized (Der f 2): 17%

O=S(=O)([O-])[O-].O=S(=O)([O-])[O-].[Al+3].[K+] [AlK(SO4)2]
% of Allergen Neutralized (Der f 1): 65%
% of Allergen Neutralized (Der f 2): 23%

aluminum chlorohydrate [Al(OH)Cl2, reference compound]
% of Allergen Neutralized (Der f 1): 59%
performance at deactivating dust mite allergens (Der f 1; statement in words on Table I): relatively poor performance
% of Allergen Neutralized (Der f 2): 3%
